Assay results: ChEMBL document CHEMBL3763153, “Recent Update on Human Lactate Dehydrogenase Enzyme 5 (hLDH5) Inhibitors: A Promising Approach for Cancer Chemotherapy” (J Med Chem, 2016)

Assays:
[1] = biological target: L-lactate dehydrogenase B chain (Homo sapiens, UniProt P07195)
Description: Competitive inhibition of human LDH1 in presence of NADH

[2] = biological target: T1, L-lactate dehydrogenase A chain (Homo sapiens, UniProt P00338)
Description: Competitive inhibition of human LDH5 in presence of NADH

[3] = biological target: T1, L-lactate dehydrogenase A chain; assay: Competitive inhibition of human LDH5 incubated for 15 mins in presence of NADH by fluorescence analysis

Chain of L-lactate dehydrogenase B chain (P07195 whole entry): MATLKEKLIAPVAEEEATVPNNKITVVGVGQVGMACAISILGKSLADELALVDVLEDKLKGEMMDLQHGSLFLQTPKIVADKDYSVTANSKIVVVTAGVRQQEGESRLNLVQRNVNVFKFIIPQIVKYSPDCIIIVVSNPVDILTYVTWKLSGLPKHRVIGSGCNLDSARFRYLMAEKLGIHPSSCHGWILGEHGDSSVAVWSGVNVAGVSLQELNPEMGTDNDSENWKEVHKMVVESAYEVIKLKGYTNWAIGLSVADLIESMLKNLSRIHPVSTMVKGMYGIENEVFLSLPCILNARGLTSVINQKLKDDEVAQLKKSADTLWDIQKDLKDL

Row | Ki [1] | Ki [2] | SMILES | other results
1 | 400 nM | 600 nM | Cc1cc2c(C(C)C)c(O)c(O)c3c2c(c1-c1c(C)cc2c(C(C)C)c(O)c(O)c4c2c1OC4=O)OC3=O | –
2 | – | – | O=C(O)CCCc1ccc(-n2cc(CCCn3cc(C4=C(c5c[nH]c6ccccc56)C(=O)NC4=O)c4ccccc43)nn2)cc1 | IC50 [2]: 14800 nM
3 | – | – | O=C(O)CCCCn1cc(CCCCn2cc(C3=C(c4c[nH]c5ccccc45)C(=O)NC3=O)c3ccccc32)nn1 | IC50 [2]: 35900 nM
4 | 8000 nM | 30 nM | Cc1ccc(-c2cc3c(C(=O)O)c(O)c(O)c(C(C)C)c3cc2C)cc1 | –
5 | > 125000 nM | 3000 nM | Cc1ccccc1-c1cc2c(C(=O)O)c(O)c(O)c(C(C)C)c2cc1C | –
6 | – | – | O=C(O)c1cc2c(C(F)(F)F)cc(-c3ccccc3)cc2n1O[C@@H]1O[C@H](CO)[C@@H](O)[C@H](O)[C@H]1O | Ki [3]: 19500 nM
7 | 8000 nM | 1000 nM | Cc1cc2c(C(C)C)c(O)c(O)c(C(=O)O)c2cc1Cc1ccc(Cl)cc1 | –
8 | 700 nM | 1300 nM | Cc1cc2c(C(C)C)c(O)c(O)c(C(=O)O)c2cc1-c1ccc2c(C(C)C)c(O)c(O)c(C(=O)O)c2c1 | –
9 | – | 200 nM | Cc1cccc(-c2cc3c(C(=O)O)c(O)c(O)c(C(C)C)c3cc2C)c1 | –
10 | 92000 nM | 2500 nM | Cc1cc2c(C(C)C)c(O)c(O)c3c2c(c1-c1c(C)cc2c(C(C)C)c(O)c(O)c4c2c1OC4=N)OC3=N | –
11 | – | 2000 nM | CC(=O)Oc1c(-c2c(C)cc3c(C(C)C)c(O)c(O)c(C#N)c3c2OC(C)=O)c(C)cc2c(C(C)C)c(O)c(O)c(C#N)c12 | –
12 | – | 9100 nM | CCCCC(=O)Oc1c(-c2c(C)cc3c(C(C)C)c(O)c(O)c(C#N)c3c2OC(=O)CCCC)c(C)cc2c(C(C)C)c(O)c(O)c(C#N)c12 | –
13 | 94400 nM | – | NC(=O)C(=O)O [OXAMATE] | –

Row | SMILES | Ki [1] | Ki [2] | other results
14 | CCCc1c(O)c(O)c(C(=O)O)c2ccc(C)cc12 | – | 1000 nM | –
15 | Cc1cc2c(C(C)C)c(O)c(O)c(C(=O)O)c2cc1Cc1ccccc1 | – | 200 nM | –
16 | Cc1cc2c(C(C)C)c(O)c(O)c(C=O)c2c(O)c1-c1c(C)cc2c(C(C)C)c(O)c(O)c(C=O)c2c1O [GOSSYPOL] | – | 1900 nM | –
